Test results as given in patent US11628146B2, “Estrogen receptor ligand treatment for neurodegenerative diseases” (The Regents of the University of California, priority 2014, dated 2023).
“Also recorded” adds a separate entry of the source.

Experiments:
EAE in C57BL/6 mice = assay: Rotarod testing of motor coordination and balance in EAE, C57BL/6 mice; type: in vivo, mouse; set-up: key to Rotarod Score: n.s. = not significant; *p < 0.05; ***p = 0.0004; ****p < 0.0001; n.i. = not informative; details: for Rotarod Score: significance vs vehicle
Procedure: Rotarod Testing. Motor behavior was tested up to two times per week for each mouse using a rotarod apparatus (Med Associates Inc., St. Albans, Vt.). Briefly, animals were placed on a rotating horizontal cylinder for a maximum of 200 seconds. The amount of time the mouse remained walking on the cylinder, without falling, was recorded. Each mouse was tested on a speed of 3-30 rpm and given three trials for any given day. The three trials were averaged to report a single value for an individual mouse, and then averages were calculated for all animals within a given treatment group. The first two trial days prior to immunization (day 0), served as practice trials.

[1] = Dissolution of the compound in the oil vehicle; type: physicochemical; details: merely pipetting
Procedure: Reagents. AC-186 was dissolved in either Miglyol 812N liquid oil (Sasol North America) or sesame oil (Sigma Aldrich) as following concentration; 1.5 mg/mL for 3 mg/kg group, 5 mg/mL for 10 mg/kg group, and 15 mg/mL for 30 mg/kg group. Diarylpropionitrile (DPN, Tocris Biosciences) was dissolved in 10% molecular-grade ethanol and diluted with 90% of either Miglyol 812N liquid oil or sesame oil.
Three doses of the AC-186 compound were tested in C57BL6 female mice: low (3 mg/kg, every other day), medium (10 mg/kg, every other day), and high (30 mg/kg, every other day), each injected subcutaneously in a sesame oil vehicle. The ERβ ligand diarylpropionitrile (DPN) was tested as a positive control because DPN can partially ameliorate EAE and because the treatment effects in EAE experiments can vary based on the level of disease severity within an experiment. Direct comparisons between treatments were only made between treatment groups within a single EAE experiment and not between treatment groups of different EAE experiments. […] The difference in improvement between the 30 mg/kg AC-186 group and all other groups increased with time.

[2] = tested on: cerebrum and cerebellum of female C57BL/6 mice with EAE; assay: Cerebral and cerebellar neuropathology (gray and white matter) in EAE; type: in vivo, mouse; details: 30 mg/kg every other day; vs Vehicle EAE
Procedure: Histological Preparation. Mice were exposed to a lethal dose of isoflurane and perfused transcardially with ice-cold 1×PBS for 8-15 min, followed by 10% formalin for 10-15 min. Spinal cords and brains were dissected and submerged in 10% formalin overnight at 4° C., followed by 30% sucrose in PBS for 24 h. Tissues were embedded in […] solution for cryostat sectioning then post-fixed overnight in 10% formalin and cryoprotected in 30% sucrose. The embedded tissues were stored in −80° C. after flash frozen in dry ice. 40 μm thick free-floating spinal cord cross-sections, and sagittal brain sections were obtained with a microtome b cryostat (model HM505E) at −20° C. Tissues were collected serially and stored in 1×PBS with 1% sodium azide in 4° C. until immunohistochemistry.
Immunofluorescence. Prior to histological staining, […] free-floating sections were thoroughly washed with 1×PBS to remove residual sodium azide. In the case of anti-MBP labeling, tissue sections were processed with an additional 1 hour incubation with 5% glacial acetic acid in 100-proof ethanol at room temperature (RT). After washing tissue sections were permeabilized with 0.3% TritonX-100 and 2% normal goat serum in 1×PBS for 30 minutes at room temperature and blocked with 10% normal goat serum in 1×PBS for 1 hour. Tissues were then incubated with primary antibodies overnight in 4° C. The following primary antibody (Ab) were used: Rat anti-MBP (Millipore) at 1:1000 dilutions, Rabbit anti-NF200 (Sigma Aldrich) at 1:750 dilutions, Rabbit anti-beta-APP (Life Technologies) at 1:200 dilutions, Mouse anti-NeuN at 1:1000 dilutions (Millipore), Rabbit anti-PSD95, and Rabbit anti-Synapsin 1 at 1:500 dilutions (Millipore), and Rat anti-CD45 at 1:1500 dilutions (Millipore). The next day tissues were washed and incubated with secondary antibodies conjugated to Cy5 or Cy3 (Millipore) for 1 hour at room temperature. A nuclear stain DAPI (2 ng/mL; Molecular Probes) was added 10 minutes prior to final washes after secondary Ab incubation. Sections were mounted on slides, allowed to semi-dry, and cover slipped in fluoromount G (Fisher Scientific). IgG-control experiments were performed for all primary Ab, and only non-immunoreactive tissues under these conditions were analyzed.
Chromagen Immunohistochemistry. […] Tissues were then incubated with primary antibodies overnight in 4° C. The following primary antibodies were used: Rat anti-CD3 at 1:2000 dilutions (BD Pharmingen), anti-Calbindin D28K at 1:1000 dilutions (Millipore), and Rabbit anti-Iba1 at 1:10000 dilutions (Wako Chemicals), were added for 2 hour at room temperature, and then placed in 4° C. overnight. Tissue sections then followed with secondary Ab labeling at 1:1000 dilutions (Vector labs) for 1 hour at room temperature and then with Avidin-Biotin Conjugation solution (Vector Labs) for 1 hour at room temperature. Tissue sections were treated with DAB peroxidase substrate (Vector labs) according to manufacturer instructions. IgG-control experiments were performed for all primary Ab, and only non-immunoreactive tissues under these conditions were analyzed.
Microscopy and Quantification. Three spinal cord cross-sections at the C5-12 level from each mouse (n=3-6) were captured under microscope at 10× magnification. To quantify demyelination in the spinal cord and cerebellum, white matter was manually delineated on the basis of DAPI staining, and MBP staining intensity was calculated and reported in the sampled area. Axonal damage was assessed by counting beta-APP^+ cells in a confocal 10× microscope in spinal cord. Axonal densities were calculated by counting the number of NF200^+ or NeuN^+ neuronal cells in a 10× confocal image in the sampled area of the captured tissue section. Cerebellar Purkinje (Calbindin^+) cells were manually counted using a brightfield 10× microscope over the entire sagittal cerebellum. […]

In the case of `Oc1ccc(C2(c3ccccc3F)CCC(F)(F)CC2)cc1` [AC-186], the “Rotarod Score” value (EAE in C57BL/6 mice; C57BL/6 F, AC186 3 mg/kg, sesame vehicle) is reported as “n.s”, the “Rotarod Score” value (EAE in C57BL/6 mice; C57BL/6 F, AC186 10 mg/kg, miglylol vehicle) is reported as “n.s” and the “Rotarod Score” value (EAE in C57BL/6 mice; C57BL/6 F, AC186 10 mg/kg, sesame vehicle) is reported as “n.s”. The “Rotarod Score” value (EAE in C57BL/6 mice; C57BL/6 F, AC186 30 mg/kg, miglylol vehicle) was “*** (***p = 0.0004)”, the “Rotarod Score” value (EAE in C57BL/6 mice; C57BL/6 F, AC186 30 mg/kg, sesame vehicle) was “n.s” and the “Rotarod Score” value (EAE in C57BL/6 mice; C57BL/6 M, AC186 30 mg/kg, miglylol vehicle) was “**** (****p < 0.0001)”. For the same compound, the “Rotarod Score” value (EAE in C57BL/6 mice; C57BL/6 M, AC186 30 mg/kg, sesame vehicle) was “n.s”, the Rotarod times (EAE in C57BL/6 mice; female C57BL/6, 30 mg/kg in miglyol, vs miglyol vehicle) was “significant efficacy in the rotarod experiment; also recorded: beneficial effects; also recorded: showed an improvement; also recorded: significant improvement” and the “Rotarod performance at the final two time-points” value (EAE in C57BL/6 mice; female C57BL/6, 30 mg/kg in sesame oil, days 48 and 50, 200 second test) was “performed perfectly”. The Rotarod times (EAE in C57BL/6 mice; female C57BL/6, 30 mg/kg in sesame oil, vs vehicle) was “No significant effect was observed”, the Rotarod times (EAE in C57BL/6 mice; male C57BL/6, 30 mg/kg in miglyol, vs miglyol alone) was “performed significantly better; also recorded: better rotarod scores” and the Rotarod times (EAE in C57BL/6 mice; male C57BL/6, 30 mg/kg in sesame oil, vs sesame oil alone) was “did not perform significantly better”. For the same compound, the “Time to dissolve in miglyol” value [1] was 30 s, the “Axonal densities (NF200), cerebellar white matter” value [2] was “a protective effect; also recorded: significantly more axon numbers” and the “Axonal densities (NF200), cerebral white matter (splenium of the corpus callosum)” value [2] was “a protective effect; also recorded: significantly more axon numbers”. For the same compound, the “Calbindin+ Purkinje cells, cerebellar gray matter” value [2] was “prevented; also recorded: a protective effect; also recorded: higher numbers of Calbindin^+ Purkinje cells”, the “Myelin staining intensity (MBP), cerebellar white matter” value [2] was “a protective effect; also recorded: higher MBP staining intensity” and the “Myelin staining intensity (MBP), cerebral white matter (splenium of the corpus callosum)” value [2] was “a protective effect; also recorded: a trend for higher MBP staining intensity”. The “NeuN+ neuronal cells, cerebral cortex gray matter” value [2] was “prevented; also recorded: a protective effect; also recorded: higher numbers of NeuN^+ cortical neurons”, the “PSD-95 staining, cerebellar gray matter (molecular layer)” value [2] was “prevented; also recorded: a protective effect; also recorded: greater PSD-95 and Synapsin1 staining” and the “PSD-95 staining, cerebral cortex gray matter” value [2] was “prevented; also recorded: a protective effect; also recorded: greater PSD-95 staining”. For the same compound, the “Synapsin1 staining, cerebellar molecular layer” value [2] was “a protective effect; also recorded: greater PSD-95 and Synapsin1 staining” and the “Synapsin-1 staining, cerebral cortex gray matter” value [2] was “No effect was observed; also recorded: no significant differences in Synapsin-1 staining”.
